{
  "source": "paper PMC8969271",
  "about": "“Release of moth pheromone compounds from Nicotiana benthamiana upon transient expression of heterologous biosynthetic genes” (BMC Biology, 2022)",
  "type_in_all_cases": "cell-based",
  "key": {"ATF1": {"biological_target": "T1, ATF1 (Saccharomyces cerevisiae, UniProt P40353)", "T1 construct": "expressed transiently in N. benthamiana leaves with AtrΔ11, CpuFatB1, CsupYPAQ and CsupFAR2", "T1 sequence (P40353 1-525)": "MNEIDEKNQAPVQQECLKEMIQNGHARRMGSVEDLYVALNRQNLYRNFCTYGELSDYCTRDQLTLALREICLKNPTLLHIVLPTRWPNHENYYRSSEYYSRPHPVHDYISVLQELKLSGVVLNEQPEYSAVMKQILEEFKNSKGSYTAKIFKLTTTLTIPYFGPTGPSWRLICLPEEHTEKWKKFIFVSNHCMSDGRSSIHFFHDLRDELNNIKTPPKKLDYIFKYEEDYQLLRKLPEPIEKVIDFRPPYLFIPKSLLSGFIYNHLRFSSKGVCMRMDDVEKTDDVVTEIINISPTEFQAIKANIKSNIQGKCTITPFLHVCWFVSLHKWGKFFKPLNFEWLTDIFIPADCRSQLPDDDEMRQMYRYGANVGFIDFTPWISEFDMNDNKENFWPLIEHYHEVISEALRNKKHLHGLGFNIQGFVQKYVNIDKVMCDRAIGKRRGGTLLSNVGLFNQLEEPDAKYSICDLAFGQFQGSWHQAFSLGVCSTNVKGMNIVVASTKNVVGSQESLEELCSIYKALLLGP", "assay": "co-expression with desaturases and CsupFAR2 in N. benthamiana leaves, SPME and GC/MS", "conditions": "endogenous acetyl donor; product (Z)-11-hexadecenyl acetate"}, "CsupFAR2 [1]": {"biological_target": "T2, CsupFAR2 (Chilo suppressalis, UniProt A0A3S2LS93)", "T2 construct": "full-length ORF 1404 nt, 468 aa; synthesized gene; expressed in S. cerevisiae INVSc (pYES52) and N. benthamiana leaves", "T2 sequence (A0A3S2LS93 1-468)": "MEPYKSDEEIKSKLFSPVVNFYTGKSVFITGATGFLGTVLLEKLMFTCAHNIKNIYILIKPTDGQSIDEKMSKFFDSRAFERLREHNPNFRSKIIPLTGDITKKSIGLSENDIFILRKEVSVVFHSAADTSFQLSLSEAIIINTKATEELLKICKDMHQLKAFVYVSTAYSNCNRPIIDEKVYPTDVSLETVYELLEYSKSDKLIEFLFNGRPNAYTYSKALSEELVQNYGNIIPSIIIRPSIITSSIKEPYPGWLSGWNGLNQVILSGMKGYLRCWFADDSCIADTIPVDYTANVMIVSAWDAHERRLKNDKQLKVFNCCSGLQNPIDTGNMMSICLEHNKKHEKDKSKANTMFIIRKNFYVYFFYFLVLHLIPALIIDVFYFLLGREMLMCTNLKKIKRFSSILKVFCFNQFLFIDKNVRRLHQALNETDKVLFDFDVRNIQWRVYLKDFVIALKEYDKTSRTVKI", "assay": "co-expression with CsupKPSE in N. benthamiana leaves, GC/MS of fatty alcohols", "conditions": "acyl form in cells, presumably acyl-CoA; product (Z)-9-hexadecenol"}, "CsupKPSE": {"biological_target": "T3, CsupKPSE (Chilo suppressalis, UniProt A0A5Q0V425)", "T3 construct": "full-length ORF 1059 nt, 353 aa; synthesized gene; expressed in S. cerevisiae ole1/elo1 and N. benthamiana leaves", "T3 sequence (A0A5Q0V425 20-371)": "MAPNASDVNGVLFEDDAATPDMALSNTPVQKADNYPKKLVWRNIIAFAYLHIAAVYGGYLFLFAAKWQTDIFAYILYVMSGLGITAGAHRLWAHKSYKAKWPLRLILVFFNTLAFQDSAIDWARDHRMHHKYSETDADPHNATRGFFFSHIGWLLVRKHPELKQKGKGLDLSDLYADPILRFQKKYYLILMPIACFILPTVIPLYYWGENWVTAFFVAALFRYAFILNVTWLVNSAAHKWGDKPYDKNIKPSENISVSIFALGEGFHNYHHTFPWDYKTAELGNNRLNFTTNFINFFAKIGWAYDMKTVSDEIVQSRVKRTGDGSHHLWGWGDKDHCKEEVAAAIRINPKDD", "assay": "heterologous expression in yeast and N. benthamiana, GC/MS of fatty acid methyl esters", "conditions": "endogenous palmitic acid (acyl form in cells, presumably acyl-CoA); product (Z)-9-hexadecenoic acid"}, "CsupFAR2 [2]": {"biological_target": "T2, CsupFAR2", "assay": "heterologous expression in yeast and N. benthamiana, GC/MS of fatty alcohols", "conditions": "yeast supplemented with methyl (Z)-11-hexadecenoate or co-expressing CsupYPAQ; acyl form in cells, presumably acyl-CoA; product (Z)-11-hexadecenol"}},
  "data": [
    {"smiles": "CCCC/C=C\\CCCCCCCCCCO", "note": "[Z11-16:OH, (Z)-11-hexadecenol]", "values": [
      {"measurement": "co-expression with desaturases and CsupFAR2 in N. benthamiana leaves, SPME and G", "setting": "ATF1", "value": "Upon co-expression of the acetyltransferase gene ATF1, Z11-16:OAc was also released together with Z11-16:OH"}
    ]},
    {"smiles": "CCCCCC/C=C\\CCCCCCCC(=O)O", "note": "[Z9-16:acid, (Z)-9-hexadecenoic acid]", "values": [
      {"measurement": "co-expression with CsupKPSE in N. benthamiana leaves, GC/MS of fatty alcohols", "setting": "CsupFAR2 [1]", "value": "a minor amount of (Z)-9-hexadecenol (Z9-16:OH) was produced"}
    ]},
    {"smiles": "CCCCCCCCCCCCCCCC(=O)O", "note": "[16:acid, palmitic acid]", "values": [
      {"measurement": "heterologous expression in yeast and N. benthamiana, GC/MS of fatty acid methyl", "setting": "CsupKPSE", "value": "CsupKPSE producing Z9-16:acid, the precursor of the minor pheromone component from palmitic acid"}
    ]},
    {"smiles": "CCCC/C=C\\CCCCCCCCCC(=O)O", "note": "[Z11-16:acid, (Z)-11-hexadecenoic acid]", "values": [
      {"measurement": "heterologous expression in yeast and N. benthamiana, GC/MS of fatty alcohols", "setting": "CsupFAR2 [2]", "value": "it reduced the C. suppressalis pheromone precursors Z11-16:acid, Z9-16:acid"}
    ]}
  ]
}
